Experimental data taken from patent US9930889B2, “Synergistic weed control from applications of penoxsulam and mefenacet” (Dow AgroSciences LLC, priority 2012, dated 2018).

Tests used:
Test in all cases: Field trial in flooded transplanted rice, % visual weed control
Format in all cases: in vivo
[1] = system: Echinochloa crus-galli (barnyard grass, ECHCG); settings: 42 days
Source text: (§1) The (a) penoxsulam or an agriculturally acceptable salt thereof is mixed with or applied in combination with (b) mefenacet or an agriculturally acceptable salt thereof in an amount sufficient to induce a synergistic herbicidal effect. […] As described in the Herbicide Handbook of the Weed Science Society of America, Ninth Edition, 2007, p. 429, ′″synergism′ [is] an interaction of two or more factors such that the effect when combined is greater than the predicted effect based on the response to each factor applied separately.” Synergistic in the herbicide context can mean that the use of (a) and (b) as defined above results in an increased weed control effect compared to the weed control effects that are possible with the use of (a) or (b) alone. In some embodiments, the damage or injury to the undesired vegetation caused by the compositions and methods disclosed herein is evaluated using a scale from 0% to 100%, when compared with the untreated control vegetation, wherein 0% indicates no damage to the undesired vegetation and 100% indicates complete destruction of the undesired vegetation. […] 22 (1967)
(§2) Field trials were conducted in Japan with applications made in the area of naturally occurring weed populations. All treatments were applied using a randomized complete block trial design, with 3 replications per treatment. Plot size was 2 meters (m)×2 m (width×length), with each plot being a separate entity and flooded with water. Rice was transplanted into the plots, and the rice crop was maintained as a normal commercial crop with appropriate fertilizer and maintenance treatments as needed. Rice size at application varied from 4 leaf to 2 tiller stage, and weeds were 1 to 5 leaf stage. All plots were maintained flooded to 3 to 6 centimeter (cm) depth and treatments were applied by hand directly into the flooded plots containing the rice and weeds.
(§3) Treatments consisted of penoxsulam and mefenacet, applied alone or in combination. Penoxsulam was applied as a granule formulation (3.5 grams of active ingredient per kilogram (g ai/kg) granule (GR)) applied directly into the flooded plots, or as a liquid formulation (31 grams of active ingredient per liter (g ai/L) emulsifiable concentrate (EC)) mixed in 1 liter (L) of solution and applied into the flooded plots. Mefenacet, as the commercial product HINOCHLOA® containing 40 g ai/kg GR, was applied directly into the flooded plots.
(§4) The treated plots and control plots were rated blind at various intervals after application. Ratings were based on a scale of 0-100%, as discussed above, wherein 0% indicates complete growth of the undesired vegetation and 100% indicates complete prevention of the undesired vegetation.
(§5) Colby's equation was used to determine the herbicidal effects expected from the mixtures, as described above. The results were measured at the evaluation intervals provided in Table 1 after the application of the compositions (penoxsulam and mefenacet, applied alone or in combination). […] The herbicide tank mix combinations tested, application rates and ratios employed, plant species tested, and results are included in Table 1 below.

[2] = system: Sagittaria pygmaea (dwarf arrowhead, SAGPY); settings: 44 days
Source text: as §1, §2, §3, §4, §5

[3] = system: Lindernia procumbens (common false pimpernel, LIDPY); settings: for Penoxsulam Mean % weed control: 18 g ai/ha
Source text: as §1, §2, §3, §4, §5

[4] = system: Eleocharis kuroguwai (kuro-guwai, ELOKU)
Source text: as §1, §2, §3, §4, §5

`CN(C(=O)COc1nc2ccccc2s1)c1ccccc1` [Mefenacet, 2-(2-benzothiazolyloxy)-N-methyl-N-phenylacetamide] was tested, and the “Mefenacet Mean % weed control” value ([1]; 750 g ai/ha) was 40%, the “Mefenacet Mean % weed control” value ([2]; 500 g ai/ha) was 0% and the “Mefenacet Mean % weed control” value ([2]; 750 g ai/ha) was 0%. For the same compound, the “Mefenacet Mean % weed control” value ([3]; 18 days, 500 g ai/ha) was 43%, the “Mefenacet Mean % weed control” value ([3]; 18 days, 750 g ai/ha) was 50% and the “Mefenacet Mean % weed control” value ([3]; 18 days, 1000 g ai/ha) was 57%. For the same compound, the “Mefenacet Mean % weed control” value ([3]; 23 days, 500 g ai/ha) was 0%, the “Mefenacet Mean % weed control” value ([3]; 23 days, 750 g ai/ha) was 27% and the “Mefenacet Mean % weed control” value ([3]; 24 days, 500 g ai/ha) was 0%. The “Mefenacet Mean % weed control” value ([3]; 42 days, 500 g ai/ha) was 0%, the “Mefenacet Mean % weed control” value ([4]; 34 days, 500 g ai/ha) was 0% and the “Mefenacet Mean % weed control” value ([4]; 34 days, 750 g ai/ha) was 0%. The “Mefenacet Mean % weed control” value ([4]; 34 days, 1000 g ai/ha) was 0%, the “Mefenacet Mean % weed control” value ([4]; 44 days, 1000 g ai/ha) was 23% and the “Mefenacet Mean % weed control” value ([4]; 52 days, 750 g ai/ha) was 33%. For the same compound, the “Mefenacet Mean % weed control” value ([4]; 52 days, 1000 g ai/ha) was 20% and the “Mefenacet Mean % weed control” value ([4]; 61 days, 1000 g ai/ha) was 0%.
In the case of `COc1cnc(OC)n2nc(NS(=O)(=O)c3c(OCC(F)F)cccc3C(F)(F)F)nc12` [Penoxsulam], the “Penoxsulam Mean % weed control” value ([1]; 18 g ai/ha) is reported as 81%, the “Penoxsulam Mean % weed control” value ([2]; 35 g ai/ha) is reported as 82% and the “Penoxsulam Mean % weed control” value ([3]; 18 days) is reported as 73%. For the same compound, the “Penoxsulam Mean % weed control” value ([3]; 23 days) was 87%, the “Penoxsulam Mean % weed control” value ([3]; 24 days) was 86% and the “Penoxsulam Mean % weed control” value ([3]; 42 days) was 83%. The “Penoxsulam Mean % weed control” value ([4]; 34 days, 18 g ai/ha) was 62%, the “Penoxsulam Mean % weed control” value ([4]; 44 days, 70 g ai/ha) was 81% and the “Penoxsulam Mean % weed control” value ([4]; 52 days, 18 g ai/ha) was 34%. The “Penoxsulam Mean % weed control” value ([4]; 52 days, 35 g ai/ha) was 62%, the “Penoxsulam Mean % weed control” value ([4]; 52 days, 70 g ai/ha) was 71% and the “Penoxsulam Mean % weed control” value ([4]; 61 days, 35 g ai/ha) was 49%. For the same compound, the “Penoxsulam Mean % weed control” value ([4]; 61 days, 70 g ai/ha) was 61%.
